How the values were obtained:
[1] = target: Glutamate receptor ionotropic, AMPA (Rattus norvegicus, UniProt P19490+P19491+P19492+P19493); assay: Compound (100 uM) was evaluated for inhibition of Ionotropic glutamate receptor AMPA by using [3H]- AMPA; assay type: protein-complex assay
[2] = target: Glutamate receptor ionotropic, kainate; assay: Inhibition of [3H]- Kainate binding to Ionotropic glutamate receptor kainate in brain homogenates.; assay type: tissue-based, Rattus norvegicus
[3] = target: Glutamate receptor ionotropic, kainate (Rattus norvegicus) (UniProt P22756+Q01812+P42260+P42264+Q63273); assay: Displacement of [3H]- Kainate from Ionotropic glutamate receptor kainate of rat brain homogenates.; assay type: tissue-based; design: concentration or dose not given beside the values; conditions: concentration not given here
[4] = target: Glutamate receptor ionotropic, AMPA (Rattus norvegicus) (UniProt P19491+P19492+P19493+P19490); assay: Displacement of [3H]- AMPA from Ionotropic glutamate receptor of rat brain; design: concentration or dose not given beside the values; conditions: concentration not given here
[5] = species: Rattus norvegicus; assay: Functional antagonist activity was determined by the ability to inhibit AMPA stimulated [3H]norepinephrine release from rat hippocampal slices.; conditions: Hippocampus

SMILES: Cc1cc(N)c(NC(=O)[C@@H](CO)NC(=O)OC(C)(C)C)cc1C
- IC50 [1]: 4 µM
- IC50 [2]: 11 µM

SMILES: N[C@@H]1COC1=O
- inhibition [3]: 4%
- inhibition [4]: 0%

SMILES: Cc1cc2[nH]c(=O)c(=O)n(C(=O)[C@@H](CO)NC(=O)OC(C)(C)C)c2cc1C
- IC50 [1]: 12 µM
- IC50 [2]: 11 µM

SMILES: N[C@H](Cn1c(=O)c(=O)[nH]c2ccccc21)C(=O)O [listing 1 of 3 here]
- IC50 [2]: 38 µM

SMILES: Cc1cc2[nH]c(=O)c(=O)n(C[C@H](N)C(=O)O)c2cc1C
- inhibition [3]: 38%
- inhibition [4]: 66%
- IC50 [2]: 51 µM
- EC50 [5]: 290 µM

SMILES: Nc1ccccc1NC[C@@H](N)C(=O)O
- inhibition [3]: 0%
- inhibition [4]: 0%

SMILES: Cc1cc2[nH]c(=O)c(=O)n(C(=O)[C@H](N)CO)c2cc1C
- inhibition [3]: 15%
- inhibition [4]: 14%

SMILES: N[C@H]1COC1=O
- inhibition [3]: 5%
- inhibition [4]: 11%

SMILES: N[C@@H](Cn1c(=O)c(=O)[nH]c2ccccc21)C(=O)O
- inhibition [3]: 27%
- inhibition [4]: 95%
- IC50 [2]: 0.23 µM

SMILES: Cc1cc2[nH]c(=O)c(=O)n(C(=O)[C@@H](N)CO)c2cc1C
- inhibition [3]: 16%
- inhibition [4]: 24%

SMILES: Cc1cc2[nH]c(=O)c(=O)n(C[C@@H](N)C(=O)O)c2cc1C
- inhibition [3]: 27%
- inhibition [4]: 62%
- IC50 [2]: 22 µM
- EC50 [5]: 300 µM

SMILES: O=c1[nH]c2cc([N+](=O)[O-])c([N+](=O)[O-])cc2[nH]c1=O [DNQX]
- IC50 [2]: 0.74 µM

SMILES: O=[N+]([O-])c1cc2nc(O)c(O)nc2cc1[N+](=O)[O-]
- inhibition [3]: 81%
- inhibition [4]: 99%

SMILES: Cc1cc2[nH]c(=O)n(C(=O)[C@@H](N)CO)c2cc1C
- inhibition [3]: 13%
- inhibition [4]: 21%

SMILES: Cc1cc(N)c(NC[C@H](N)C(=O)O)cc1C
- inhibition [3]: 7%
- inhibition [4]: 15%

SMILES: Cc1cc2[nH]c(=O)c(=O)n(C[C@H](CO)NC(=O)OC(C)(C)C)c2cc1C
- IC50 [1]: 47 µM
- IC50 [2]: 5 µM

SMILES: Cc1cc(N)c(NC[C@@H](N)C(=O)O)cc1C
- inhibition [3]: 0%
- inhibition [4]: 15%

SMILES: Nc1ccccc1NC[C@H](N)C(=O)O
- inhibition [3]: 14%
- inhibition [4]: 70%

SMILES: N[C@H](Cn1c(=O)c(=O)[nH]c2ccccc21)C(=O)O [listing 2 of 3 here]
- IC50 [2]: 0.69 µM

SMILES: N[C@H](Cn1c(=O)c(=O)[nH]c2ccccc21)C(=O)O [listing 3 of 3 here]
- inhibition [3]: 5%
- inhibition [4]: 77%

Source: ChEMBL document CHEMBL1129382, “Synthesis of chiral 1-(2'-amino-2'-carboxyethyl)-1,4-dihydro-6,7-quinoxaline-2,3-diones: alpha-amino-3-hydroxy-5-methyl-4-isoxazolepropionate receptor agonists and antagonists” (J Med Chem, 1996)
